# Measured values: paper PMC9516332 (Frontiers in Oncology, 2022)
# Read-outs that look alike come from different tables or passages of the source.
# Test system: 134 cancer cell lines
# Test: Cell viability assay (ATPlite, 72 hours), IC50 on cancer cell line panel
compound,measurement,setting,value
Cc1cc(Nc2ncnc3ccc(NC4=NC(C)(C)CO4)cc23)ccc1Oc1ccn2ncnc2c1 [tucatinib],IC50,"Homo sapiens, MOLT-4, read-out: IC50 in cell proliferation assay, MOLT-4 cell line",20.3 µM
same,IC50,"Homo sapiens, MV4-11, read-out: IC50 in cell proliferation assay, MV4-11 cell line (FLT3 ITD)",19.1 µM
same,IC50,"Homo sapiens, MeWo, read-out: IC50 in cell proliferation assay, MeWo cell line",> 31.6 µM
same,IC50,"Homo sapiens, NCCIT, read-out: IC50 in cell proliferation assay, NCC-IT cell line",> 31.6 µM
same,IC50,"Homo sapiens, NCI-H82, read-out: IC50 in cell proliferation assay, cell line NCI-H82",20.4 µM
same,IC50,"Homo sapiens, NCI-H460, read-out: IC50 in cell proliferation assay, NCI-H460 cell line",30.4 µM
same,IC50,"Homo sapiens, NCI-H661, read-out: IC50 in cell proliferation assay, NCI-H661 cell line",26.9 µM
same,IC50,"Homo sapiens, NCI-H716, read-out: IC50 in cell proliferation assay, cell line NCI-H716 (FGFR2-COL14A1)",29.5 µM
same,IC50,"Homo sapiens, NCI-H1650, read-out: IC50 in cell proliferation assay, NCI-H1650 cell line (EGFR exon19del)",> 31.6 µM
same,IC50,"Homo sapiens, NCI-H1975, read-out: IC50 in cell proliferation assay, NCI-H1975 cell line (EGFR p.L858R + p.T790M)",24.5 µM
same,IC50,"Homo sapiens, NCI-H2228, read-out: IC50 in cell proliferation assay, NCI-H2228 cell line (EML4-ALK)",> 31.6 µM
same,IC50,"Homo sapiens, OVCAR-3, read-out: IC50 in cell proliferation assay, cell line OVCAR-3",> 31.6 µM
same,IC50,"Homo sapiens, PFSK-1, read-out: IC50 in cell proliferation assay, cell line PFSK-1",19 µM
same,IC50,"Homo sapiens, RL95-2, read-out: IC50 in cell proliferation assay, cell line RL95-2 (EGFR p.A289V)",1.76 µM
same,IC50,"Homo sapiens, RPMI-7951, read-out: IC50 in cell proliferation assay, cell line RPMI-7951 (BRAF p.V600E)",15.8 µM
same,IC50,"Homo sapiens, RS4-11, read-out: IC50 in cell proliferation assay, cell line RS4;11",24.4 µM
same,IC50,"Homo sapiens, Rec1, read-out: IC50 in cell proliferation assay, cell line REC-1",12 µM
same,IC50,"Homo sapiens, SHP77, read-out: IC50 in cell proliferation assay, cell line SHP-77",22.8 µM
same,IC50,"Homo sapiens, SK-BR-3, read-out: IC50 in cell proliferation assay, cell line SK-BR-3 (ERBB2 amplification)",0.022 µM
same,IC50,"Homo sapiens, SK-N-AS, read-out: IC50 in cell proliferation assay, cell line SK-N-AS",25.2 µM
same,IC50,"Homo sapiens, SK-N-FI, read-out: IC50 in cell proliferation assay, cell line SK-N-FI",> 31.6 µM
same,IC50,"Homo sapiens, SK-N-MC, read-out: IC50 in cell proliferation assay, cell line SK-N-MC",15.1 µM
same,IC50,"Homo sapiens, SK-N-SH, read-out: IC50 in cell proliferation assay, cell line SK-N-SH (ALK p.F1174L)",24.9 µM
same,IC50,"Homo sapiens, SNU-5, read-out: IC50 in cell proliferation assay, cell line SNU-5 (MET amplification)",24.6 µM
same,IC50,"Homo sapiens, SNU-16, read-out: IC50 in cell proliferation assay, cell line SNU-16 (FGFR2 amplification)",20.5 µM
same,IC50,"Homo sapiens, SNU-C2B, read-out: IC50 in cell proliferation assay, cell line SNU-C2B (EGFR p.R165Q)",> 31.6 µM
same,IC50,"Homo sapiens, SU-DHL-1, read-out: IC50 in cell proliferation assay, cell line SU-DHL-1 (NPM1-ALK)",15.7 µM
same,IC50,"Homo sapiens, SU-DHL-6, read-out: IC50 in cell proliferation assay, cell line SU-DHL-6",15.3 µM
same,IC50,"Homo sapiens, SUP-T1, read-out: IC50 in cell proliferation assay, cell line SUP-T1",> 31.6 µM
same,IC50,"Homo sapiens, SW48, read-out: IC50 in cell proliferation assay, cell line SW48 (EGFR p.G719S)",17.4 µM
same,IC50,"Homo sapiens, SW480, read-out: IC50 in cell proliferation assay, cell line SW480",> 31.6 µM
same,IC50,"Homo sapiens, SW626, read-out: IC50 in cell proliferation assay, cell line SW626",23.5 µM
same,IC50,"Homo sapiens, SW780, read-out: IC50 in cell proliferation assay, cell line SW780 (FGFR3-BAIAP2L1)",22.7 µM
same,IC50,"Homo sapiens, SW837, read-out: IC50 in cell proliferation assay, cell line SW837",> 31.6 µM
same,IC50,"Homo sapiens, SW872, read-out: IC50 in cell proliferation assay, cell line SW872 (BRAF p.V600E)",31.4 µM
same,IC50,"Homo sapiens, SW900, read-out: IC50 in cell proliferation assay, cell line SW900",> 31.6 µM
same,IC50,"Homo sapiens, SW948, read-out: IC50 in cell proliferation assay, cell line SW948",> 31.6 µM
same,IC50,"Homo sapiens, SW982, read-out: IC50 in cell proliferation assay, cell line SW982 (BRAF p.V600E)",> 31.6 µM
same,IC50,"Homo sapiens, SW-620, read-out: IC50 in cell proliferation assay, cell line SW620",> 31.6 µM
same,IC50,"Homo sapiens, T98G, read-out: IC50 in cell proliferation assay, cell line T98G",30.1 µM
same,IC50,"Homo sapiens, TCC-SUP, read-out: IC50 in cell proliferation assay, cell line TCCSUP",30.4 µM
same,IC50,"Homo sapiens, THP-1, read-out: IC50 in cell proliferation assay, cell line THP-1",> 31.6 µM
same,IC50,"Homo sapiens, U2OS, read-out: IC50 in cell proliferation assay, cell line U2OS",22.1 µM
same,IC50,"Homo sapiens, U-87 MG, read-out: IC50 in cell proliferation assay, cell line U-87MG ATCC",> 31.6 µM
same,IC50,"Homo sapiens, U-118-MG, read-out: IC50 in cell proliferation assay, cell line U-118MG",25 µM
same,IC50,"Homo sapiens, UMUC3, read-out: IC50 in cell proliferation assay, cell line UM-UC-3",8.4 µM
same,IC50,"Hs766T, read-out: IC50 in cell proliferation assay, Hs 766T cell line",> 31.6 µM
same,IC50,"L-82, read-out: IC50 in cell proliferation assay, L-82 cell line (NPM1-ALK)",> 31.6 µM
same,IC50,"Rh30, read-out: IC50 in cell proliferation assay, cell line Rh30",25.8 µM
same,IC50,"read-out: IC50 in cell proliferation assay, 11-18 cell line (EGFR p.L858R)",0.825 µM
same,IC50,"read-out: IC50 in cell proliferation assay, Hs 852.T cell line",> 31.6 µM
same,IC50,"read-out: IC50 in cell proliferation assay, JAR cell line",24.1 µM
same,IC50,"read-out: IC50 in cell proliferation assay, cell line 5637",8.88 µM
same,IC50,"read-out: IC50 in cell proliferation assay, cell line A-388",15.9 µM
same,IC50,"read-out: IC50 in cell proliferation assay, cell line DB",19.2 µM
same,IC50,"read-out: IC50 in cell proliferation assay, cell line DEL (NPM1-ALK)",> 31.6 µM
same,IC50,"read-out: IC50 in cell proliferation assay, cell line ES-2 (BRAF p.V600E)",18.4 µM
same,IC50,"read-out: IC50 in cell proliferation assay, cell line PA-1",21.1 µM
same,IC50,"read-out: IC50 in cell proliferation assay, cell line PC-3",26.8 µM
same,IC50,"read-out: IC50 in cell proliferation assay, cell line RD",28.8 µM
same,IC50,"read-out: IC50 in cell proliferation assay, cell line RKO (BRAF p.V600E)",13.1 µM
same,IC50,"read-out: IC50 in cell proliferation assay, cell line RL",24 µM
same,IC50,"read-out: IC50 in cell proliferation assay, cell line RT-4 (FGFR3-TACC3)",9.99 µM
same,IC50,"read-out: IC50 in cell proliferation assay, cell line SR (NPM1-ALK)",16.8 µM
same,IC50,"read-out: IC50 in cell proliferation assay, cell line T24",20.1 µM
same,IC50,"read-out: IC50 in cell proliferation assay, cell line TT (RET p.C634W)",> 31.6 µM
same,IC50,"read-out: IC50 in cell proliferation assay, cell line VA-ES-BJ",25.9 µM
